Test system: A549 cells
Assay: High Content Screening measurement of p53 induction
Assay type: cell-based
Details: 5 μM camptothecin, 18-20 hours
Method: Any of the above described compounds are conjugated to antibodies and used for HCS measurement of p53 induction. A549 cells are seeded at 5,000 cells/well on 96 well microplates one day before treating them with different concentrations of camptothecin. In the presence of the drug, cells are incubated for 18-20 hours at 37° C., 5% CO2 in a humidified incubator. Cells are then fixed with 4% paraformaldehyde, permeabilized with 0.1% Triton X-100, and then labeled with rabbit p53 primary antibody and goat-anti-rabbit-conjugate of one of the above-described compounds. Cell nuclei are labeled with Hoechst 33342. The samples are imaged and quantitatively analyzed on an ArrayScan® HCS Reader (Cellomics, Inc. Pittsburgh Pa.). […] Camptothecin treated cells show bright p53 labeling in the nuclei.

SMILES: CC[C@@]1(O)C(=O)OCc2c1cc1n(c2=O)Cc2cc3ccccc3nc2-1 [camptothecin]
- p53 induction (fluorescence images): p53 induction in the nucleus
